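Grown in 96-well plates, cells were treated for 48 hours with each compound at five concentrations. Insufficient inhibition: endpoint recorded as highest concentration tested. TGI denotes the concentration required for complete inhibition of growth.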 Where only a bound is given, the exact number is not on record here.

Experiment in all cases: inhibition of tumour cell growth, NCI panel, 48 h
Assay [1] deals with A549 NSCLC.
In assay [2] the test system is HCT-15 colon.
Assay [3] concerns KM12 colon.
The subject of assay [4] is MDA-MB-231 breast.
The test system of assay [5] is MDA-MB-435.
In assay [6] the test system is NCI/ADR-RES ovarian.
The subject of assay [7] is PC-3 prostate.
The test system of assay [8] is SF-295 CNS.
Assay [9] deals with SK-OV-3 ovarian.
Assay [10] concerns UACC-62 melanoma.

Take `COC(=O)[C@]12CC[C@H]3CN(C(=O)OCc4ccccc4)[C@H]([C@H]31)[C@H](c1ccco1)N2S(=O)(=O)c1ccc(C)cc1`: the TGI in [1] was above 100 µM; in [2], 30.8 µM; in [3] it was 38.5 µM; in assay [4] it was above 100 µM; in assay [5] it was 67.3 µM; in assay [6], 61.2 µM. Besides, the TGI was above 100 µM in assay [7], 81.9 µM in assay [8], above 100 µM in assay [9] and 36.1 µM in [10].
In the case of `CCCn1c(CN(Cc2nc3ccccc3n2CCC)Cc2nc3ccccc3n2CCC)nc2ccccc21`, the TGI is above 64.4 µM in assay [1]; above 43.4 µM in [2]; 21.8 µM in assay [3]; 7.86 µM in assay [4]; 15.3 µM in assay [5]; above 100 µM in assay [6]. The TGI was 18.9 µM in [7], 30.7 µM in assay [8], above 100 µM in [9] and 18.3 µM in assay [10].
`C(=N\NC1=NCCCN1)/c1ccc2ccccc2c1`: the TGI was found to be 22.4 µM in assay [1]; 29.1 µM in assay [2]; 28 µM in assay [3]; 20 µM in assay [4]; 18.7 µM in assay [5]; 76.1 µM in [6]. Moreover, the TGI in assay [7] was 25.5 µM; in [8], 24.7 µM; in [9], 23.6 µM; in [10], 30 µM.
Take `CC(C)/C(Cl)=N\OC(=O)Nc1ccc(C#N)cc1`: the TGI in [1] is 39.9 µM; in [2], 22.6 µM; in assay [3], 29.9 µM; in assay [4] it was 28.1 µM; in [5], 20.8 µM; in assay [6] it was 32.2 µM. For the same compound, the TGI in assay [7] came out at 30.1 µM; in assay [8] it was 33.2 µM; in [9] it was 31.1 µM; in [10] it was 31 µM.
As to `COc1ccc(C(OCC2OC(n3cc(C)c(=O)[nH]c3=O)CC2n2cc(Cn3cc(F)c(=O)[nH]c3=O)nn2)(c2ccccc2)c2ccccc2)cc1` (stereo not given), the TGI in assay [1] is above 100 µM; in assay [2], 23.3 µM; in [3], 14.3 µM; in assay [4], 7.7 µM; in assay [5], 3.94 µM; in [6] it was above 100 µM. For the same compound, the TGI in assay [7] is 31.3 µM; in assay [8], 19.4 µM; in [9] it was 22.9 µM; in assay [10] it was 29.2 µM.
Regarding `N#CCCN(CCC#N)c1ccc(/C=C2\N=C(c3ccccc3)N(c3ccc(Cl)cc3)C2=O)cc1`, the TGI in assay [1], in [2], in assay [3], in [4], in assay [5] and in assay [6] was above 100 µM each time. Moreover, the TGI in [7], in [8], in assay [9] and in assay [10] was above 100 µM in each case.
Take `CCOC(=N)n1c(=O)n(C2=NCCN2)c2ccccc21`: the TGI in assay [1], in assay [2], in assay [3], in assay [4], in assay [5] and in assay [6] was above 100 µM each time. Besides, the TGI in [7], in assay [8], in [9] and in assay [10] was above 100 µM in each case.
`O=c1c2cc3c(cc2[nH]c2ncccc12)OCO3`: the TGI in assay [1], in assay [2], in [3], in assay [4], in assay [5] and in [6] was above 10 µM throughout. Besides, the TGI in [7], in [8], in assay [9] and in assay [10] was above 10 µM throughout.
On to `CO[C@]12CC(=O)C3(C(C[C@H]4CC5CC=C6C[C@@H](OC(C)=O)CC[C@]6(OC(C)=O)C5C[C@@]43C)C1)C1C[C@H]3[C@@H]4CC=C5C[C@@H](OC(C)=O)CC[C@]5(OC(C)=O)[C@H]4CC[C@]3(C)C12` (stereo not given in full), for which the TGI in assay [1] is above 100 µM; in [2] it was above 100 µM; in assay [3] it was 54.3 µM; in assay [4], 30.2 µM; in assay [5], above 100 µM; in assay [6], 51.3 µM. Also, the TGI in assay [7] was above 100 µM; in [8] it was 54 µM; in [9], above 100 µM; in [10], 79 µM.
As for `COc1ccc(C2(CC(C)O)SCCCS2)cc1` (stereo not given), the TGI in [1], in assay [2], in assay [3], in assay [4], in assay [5] and in assay [6] was above 100 µM throughout. Also, the TGI in assay [7], in [8], in [9] and in [10] was above 100 µM each time.
As to `CC1(C)N=C(C(N)=O)c2ncn(CCCO)c2N1`, the TGI in [1], in [2], in assay [3], in assay [4], in assay [5] and in assay [6] was above 100 µM in each case. The TGI in [7], in assay [8], in assay [9] and in assay [10] was above 100 µM each time.
Take `O=P(c1ccccc1)(c1ccccc1)N1O[C@@H](c2ccccc2)C=C[C@H]1c1ccccc1`: the TGI was found to be 24 µM in [1]; 26.3 µM in assay [2]; 44.4 µM in assay [3]; 21.1 µM in [4]; 18.7 µM in assay [5]; 24 µM in assay [6]. The TGI stood at 11.7 µM in assay [7], 28.7 µM in [8], 33.4 µM in [9] and 19.5 µM in [10].
In the case of `O=C(NCCN1CCOCC1)c1ccc2cc(C(=O)N3CC(CCl)c4ccc([N+](=O)[O-])cc43)[nH]c2c1` (stereo not given), the TGI is 26.1 µM in [1]; above 100 µM in assay [2]; above 100 µM in assay [3]; 36.3 µM in assay [4]; 49.2 µM in assay [5]; above 100 µM in [6]. Besides, the TGI turned out to be 48.8 µM in assay [7], 13.3 µM in [8], 40.5 µM in assay [9] and 43.4 µM in [10].
